For 8 molecules, Ki results are on record in US6531475B1, “CRF receptor antagonists and methods relating thereto” (Neurocrine Biosciences, Inc., priority 1998, dated 2003).

Molecules are shown by their SMILES. pKi: −log10 of the molar value. Like-named read-outs stand apart in the source and are kept apart here.

For the experiment, the target named is T1, human CRF receptors (Homo sapiens, UniProt P34998).
T1 construct: expressed in transfected cells; stably transfected cells, used as membrane suspension
T1 sequence (P34998 24-415): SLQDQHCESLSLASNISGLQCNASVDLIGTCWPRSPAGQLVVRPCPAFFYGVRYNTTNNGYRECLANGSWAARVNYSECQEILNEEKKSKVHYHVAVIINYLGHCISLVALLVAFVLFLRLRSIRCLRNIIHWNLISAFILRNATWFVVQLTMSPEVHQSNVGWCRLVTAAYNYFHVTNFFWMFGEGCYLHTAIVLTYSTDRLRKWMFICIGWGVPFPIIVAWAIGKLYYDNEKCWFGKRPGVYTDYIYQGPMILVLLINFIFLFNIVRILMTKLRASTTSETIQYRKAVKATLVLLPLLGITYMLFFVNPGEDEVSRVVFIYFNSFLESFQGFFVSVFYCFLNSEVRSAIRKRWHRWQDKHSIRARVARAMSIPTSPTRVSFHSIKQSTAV
Put plainly: CRF receptor radioligand binding assay (displacement of [125I]tyrosine-ovine CRF). The conditions noted are these: cells stably transfected with human CRF receptors, read-out: Ki (CRF receptor binding affinity). From the text: The effectiveness of a compound as a CRF receptor antagonist may be determined by various assay methods. Suitable CRF antagonists of this invention are capable of inhibiting the specific binding of CRF to its receptor and antagonizing activities associated with CRF. A compound of structure (I) may be assessed for activity as a CRF antagonist by one or more generally accepted assays for this purpose, including (but not limited to) the assays disclosed by DeSouza et al. (J. Neuroscience 7:88, 1987) and Battaglia et al. (Synapse 1:572, 1987). […] CRF receptor affinity may be determined by binding studies that measure the ability of a compound to inhibit the binding of a radiolabeled CRF (e.g., [^125I]tyrosine-CFR) to its receptor (e.g., receptors prepared from rat cerebral cortex membranes). The radioligand binding assay described by DeSouza et al. (supra, 1987) provides an assay for determining a compound's affinity for the CRF receptor. Such activity is typically calculated from the IC50 as the concentration of a compound necessary to displace 50% of the radiolabeled ligand from the receptor, and is reported as a “Ki” value calculated by the following equation: [formula]
where L=radioligand and KD=affinity of radioligand for receptor (Cheng and Prusoff, Biochem. Pharmacol. 22:3099, 1973).
With reference to CRF receptor binding affinities, CRF receptor antagonists of this invention have a Ki of less than 10 μM. […] As set forth in greater detail below, the Ki values of representative compounds of this invention were assayed by the methods set forth in Example 9.
The compounds of this invention may be evaluated for binding activity to the CRF receptor by a standard radioligand binding assay as generally described by DeSouza et al. (J. Neurosci. 7:88-100, 1987). By utilizing various radiolabeled CRF ligands, the assay may be used to evaluate the binding activity of the compounds of the present invention with any CRF receptor subtype. Briefly, the binding assay involves the displacement of a radiolabeled CRF ligand from the CRF receptor.
More specifically, the binding assay is performed in 1.5 ml Eppendorf tubes using approximately 1×10^6 cells per tube stably transfected with human CRF receptors. Each tube receives about 0.1 ml of assay buffer (e.g., Dulbecco's phosphate buffered saline, 10 mM magnesium chloride, 20 μM bacitracin) with or without unlabeled sauvagine, urotensin I or CRF (final concentration, 1 μM) to determine nonspecific binding, 0.1 ml of […] tyrosine-ovine CRF (final concentration ˜200 pM or approximately the KD as determined by Scatchard analysis) and 0.1 ml of a membrane suspension of cells containing the CRF receptor. The mixture is incubated for 2 hours at 22° C. followed by the separation of the bound and free radioligand by centrifugation. Following two washes of the pellets, the tubes are cut just above the pellet and monitored in a gamma counter for radioactivity at approximately 80% efficiency. All radioligand binding data may be analyzed using the non-linear least-square curve-fitting program LIGAND of Munson and Rodbard (Anal. Biochem. 107:220, […]).
For orientation: Loss of bound radioactivity is the signal in a displacement assay; it reports binding, not function.

The term pKi denotes the negative decadic logarithm of the Ki, by convention in mol/L. Regarding `Cc1cc2c3c(n1)c(-c1ccc(Cl)cc1Cl)nn3CCN2C1CCCCC1C` (stereo not drawn) [I-2a-6], the negative logarithm of the Ki (pKi) (more preferred compounds) is above 6.60.
On to `Cc1cc2c3c(n1)c(-c1ccc(Cl)cc1Cl)nn3CCN2C1CCCc2ccccc21` (stereo not drawn) [I-2a-8], for which the negative logarithm of the Ki (pKi) by setting is: (more preferred compounds) above 6.60; (preferred compounds) above 6.00.
Regarding `Cc1cc2c3c(n1)c(-c1ccc(Cl)cc1Cl)nn3CCN2C(C)CCCC(C)C` (stereo not drawn) [I-2a-9], the negative logarithm of the Ki (pKi) is above 6.60 (more preferred compounds) and above 6.00 (preferred compounds).
In the case of `CC[C@H]1Cn2nc(-c3ccc(C(F)(F)F)cc3OC)c3nc(C)cc(c32)N1Cc1ccc(F)cc1` [I-2a-76], for the setting “more preferred compounds”, the pKi is above 6.60.
Consider `CC[C@H]1Cn2nc(-c3ccc(C(C)C)cc3C(F)(F)F)c3nc(C)cc(c32)N1CC(C)C` [I-2a-173], for which the negative-log Ki (pKi) (preferred compounds) was above 6.00.
In the case of `C=C1CN(C(CCC)CCC)c2nc(C)nc3c2c1cn3-c1ccc(Cl)cc1Cl` [I-4b-1], the pKi (more preferred compounds) is above 6.60 and the pKi (preferred compounds) was above 6.00.
The corresponding values for `CCCC(CCC)N1CC(C)c2cn(-c3ccc(Cl)cc3Cl)c3nc(C)nc1c23` (stereo not drawn) [I-4b-2] are above 6.60 and above 6.00.
Turning to `COc1cc(C(F)(F)F)ccc1-c1nn2c3c(cc(C)nc13)N(CCC(C)C)[C@@H](C)C2` [i-2a-92], where the note is “preferred compounds”, the pKi was above 6.00.
